One assay deals with c-Myc gene. Nature of the assay: Intratumoral expression of c-Myc gene in MV4-11-subcutaneously-transplanted cancer-bearing mouse models, RT-PCR. It counts as in vivo. Conditions: 30 mg/kg. On the procedure: According to an RT-PCR method, a fluctuation in the intratumoral expression of a c-Myc gene in MV4-11-subcutaneously-transplanted cancer-bearing mouse models, to which a test compound had been administered, was analyzed.
The compound of Example 14 was dissolved in a solvent (a 0.5% methyl cellulose aqueous solution or water containing 1 equivalent of hydrochloric acid), and the obtained solution was then orally administered to the mice at a dose of 30 mg/kg. As a negative control, a solvent administration group (vehicle) involving administration of a 0.5% methyl cellulose aqueous solution was established. Moreover, the test compound was dissolved in a solvent (a normal saline containing 1 equivalent of hydrochloric acid), and the obtained solution was then intravenously administered to the mice at a dose of 30 mg/kg. As a negative control, a solvent administration group (vehicle) involving administration of a normal saline was established. From MV4-11-subcutaneously-transplanted cancer-bearing mice involving oral or intravenous administration of the test compound, tumor was excised 1, 3, 6 and 24 hours (hr) after the administration. […] A PCR reaction was carried out by the same method as that of Test Example 5, and a fluctuation in the gene expression of GAPDH and c-Myc in the tumor was then evaluated.

The next assay relates to MDA-MB-231. The assay is described as follows: Cell growth test (Cell Titer Blue) MDA-MB-231. Type of assay: cell-based. Conditions: Homo sapiens, 72 h, MDA-MB-231, Breast cancer, 3 days. How it is done:
(§1) Moreover, the compound of Example 14 was subjected to a cell growth test using various types of cell lines.
(§2) All cell lines other than the below-noticed cells were each seeded in a well plate, in which an RPMI-1640 medium supplemented with penicillin/streptomycin and FBS with a final concentration of 10% was placed. The human prostate cancer cell line VCaP (ATCC) was seeded in a well plate, in which DMEM medium supplemented with penicillin/streptomycin and FBS with a final concentration of 10% was placed. […] Thereafter, using Enspire Multimode Plate Reader (PerkinElmer), the amount of fluorescence at an excitation wavelength of 531 nm and a fluorescence wavelength of 615 nm was measured. Since the amount of fluorescence is in proportion to the concentration of a florescent product resorufin that is converted from resazurin as a redox dye by living cells, the amount of fluorescence was used as an indicator of the number of living cells. The growth inhibition percentage of the test compound in each concentration was calculated according to the following equation. Growth inhibition percentage (%)=(amount of fluorescence in test compound−added well)/(amount of fluorescence in DMSO−added well)×100 […]

A further assay has as its system PANC-1. Nature of the assay: Cell growth test (Cell Titer Blue) PANC-1. It counts as cell-based. Conditions: Homo sapiens, 72 h, PANC-1, Pancreatic cancer, 3 days. On the procedure: as §1, §2
Another assay concerns MDA-MB-453. The assay is described as follows: Cell growth test (Cell Titer Blue) MDA-MB-453. It counts as cell-based. Conditions: Homo sapiens, 72 h, MDA-MB-453, Breast cancer, 3 days. On the procedure:
as §1, §2
In general terms: The colour change of resazurin is a common sign of viable cells or microbes.

For assay [1], the system named is MV4-11 subcutaneously transplanted tumor. The assay is described as follows: Medicinal effect test, MV4-11-subcutaneously-transplanted cancer-bearing mouse models, intravenous administration. It counts as in vivo. Conditions: intravenously, once per day, 25 days, BALB/c nu/nu mice. How it is done:
T/C (%) was calculated from the average tumor volume of each group according to the following equation, and medicinal effects were then evaluated. T/C(%)=[1−(average tumor volume of drug administration group)/(average tumor volume of solvent administration group)]×100%
Moreover, using the above-described mouse models, medicinal effects obtained upon intravenous administration were evaluated.
The human acute myeloid leukemia cell line MV4-11 (ATCC) was suspended in a mixture of RPMI-1640 […] and Matrigel (Corning), and the obtained mixture was then subcutaneously transplanted into 6-week-old female BALB/c nu/nu mice (CLEA Japan, Inc.). After confirming that the average tumor volume exceeded 200 mm^3, a test compound was dissolved in a solvent (a normal saline containing 1 equivalent of hydrochloric acid), and the obtained solution was then intravenously administered to the mice at a daily dose of 10 to 30 mg/kg, once per day, for 25 days. As a negative control, a solvent administration group involving administration of a normal saline was established. The tumor diameter was measured on a daily basis, and the tumor volume was calculated. In the same manner as described above, the tumor volume and T/C (%) were calculated, and medicinal effects were then evaluated.

In a further assay the test system is K-562. Nature of the assay: Cell growth test (Cell Titer Blue) K-562. It counts as cell-based. Conditions: Homo sapiens, K562, 72 h, K-562, Chronic myeloid leukemia, 3 days. How it is done: as §1, §2

By GI50 is commonly meant the concentration giving 50% growth inhibition. A high value points to lower sensitivity of the cells.

With `CCn1c(=O)cc(C2CCN(C)CC2)c2cc(C(=O)N(C)c3ccc(C)cc3)ccc21` [Example 14, 1-Ethyl-N-methyl-N-(4-methylphenyl)-4-(1-methylpiperidin-4-yl)-2-oxo-1,2-dihydroquinoline-6-carboxamide], the “intratumoral expression of the c-Myc gene” value is given as “decreased” in the assay with c-Myc gene (intravenously, tumor excised 1, 3, 6 and 24 hr after administration (FIG. 4)); “decreased” in the assay with c-Myc gene (orally, tumor excised 1, 3, 6 and 24 hr after administration (FIG. 5)). Also, the GI50 was found to be 85 nM in the assay with MDA-MB-231, 2980 nM in the assay with PANC-1, 115 nM in the assay with MDA-MB-453 and 17 nM in the assay with K-562. The results for the “T/C (%)” value in assay [1] (10 mg/kg) and in assay [1] (30 mg/kg) were 66% and 78%, respectively.

The values above are taken from patent US10987349B2, “Antitumor agent and bromodomain inhibitor” (FUJIFILM Corporation, priority 2016, dated 2021).
